Assay results taken from patent publication US8703776B2 (Cymabay Therapeutics, Inc., priority 2011, dated 2014).

Key:
[1] = target: T1, human GPR131 (Homo sapiens, UniProt Q8TDU6); experiment: Stimulation of cAMP in stable cell line expressing human GPR131 (FRET cAMP kit); assay type: cell-based; settings: 0.5 h; 1.1 μM compound, relative to maximal stimulatory activity of lithocholic acid at 3.3 μM; 30 minutes at 37° C.; read-out: Percent Activity @ 1.1 μM (of 3.3 uM LCA) (%)
T1 construct: expressed in transfected cells
T1 sequence (Q8TDU6 1-330): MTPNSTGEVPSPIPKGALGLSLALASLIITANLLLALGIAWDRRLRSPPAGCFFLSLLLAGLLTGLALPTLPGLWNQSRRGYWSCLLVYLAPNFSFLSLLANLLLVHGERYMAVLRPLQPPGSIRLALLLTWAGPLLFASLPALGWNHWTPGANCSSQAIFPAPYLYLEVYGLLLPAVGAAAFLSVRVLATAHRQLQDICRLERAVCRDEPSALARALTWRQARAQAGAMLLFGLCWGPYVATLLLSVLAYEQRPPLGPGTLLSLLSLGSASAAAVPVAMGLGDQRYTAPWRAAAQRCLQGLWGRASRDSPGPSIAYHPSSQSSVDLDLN
Summary of the method: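 Stable human GPR131 cells in DMEM/F12 with 1 mM IBMX treated with compound for 30 min at 37° C. Intracellular cAMP measured by competitive FRET immunoassay (665/620 nm ratio). Values given as % activity at 1.1 μM compound relative to maximal lithocholic acid stimulation at 3.3 μM.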

[2] = test system: Glucagon-like peptide-1 (GLP-1); experiment: Total GLP-1 secretion at end of oral glucose tolerance test; assay type: in vivo; settings: C57/6N mice, 100 mg/kg oral; total GLP-1 at end of OGTT vs. control animals
Method: The effect of test compounds on the secretion of Glucagon-like peptide-1 (GLP-1) in C57/6N mice was determined at the end of the oral glucose tolerance test. Animals were anesthetized with pentobarbital and blood collected by heart puncture in potassium EDTA-coated microtainer tubes containing 10 μl/ml DPP-IV inhibitor and 500 KIU/ml Aprotinin. Total GLP-1 was measured using Mouse/Rat Total Glucagon-like peptide-1 assay kit (Meso Scale Discovery) and MSD SECTOR2400 Imager according to the manufacturer's instructions.
(§1) Oral glucose tolerance is expressed as a percent reduction in glucose excursion of animals receiving test compound vs. control animals. Incretin activity (i.e. incretin secretion) is expressed as an x-fold increase in GLP-1 production in animals receiving test compound vs. control animals.

[3] = Oral glucose tolerance test in C57BL/6N mice; assay type: in vivo; settings: 100 mg/kg oral, 3 g/kg glucose, percent reduction in glucose excursion (AUC 0-120 min) vs. control animals
Method: Male mice (8-10 week old C57BL/6N, Harlan Laboratories, Inc.) were maintained on 18% Protein Rodent diet (Teklad Global Diets, Harlan Laboratories, Inc). Overnight fasted mice were randomized into groups (n=8-10) to receive the test compounds at a dose of 100 mg/kg or the vehicle (1% CMC, 2% TWEEN 80). Compounds were delivered orally via gavage. Blood glucose levels were measured by glucometer before administration of compounds and at 30 minutes post compound. The mice were then dosed orally with 3 g/kg glucose. Blood glucose measurements were taken 20, 40, 60, 90 and 120 minutes after glucose administration. Glucose levels were plotted against time and the incremental area under the curve (AUC) of the glucose excursion was determined from T=0 to T=120 min.
as §1

[4] = test system: Glucagon-like peptide-2 (GLP-2); experiment: Total GLP-2 secretion at end of OGTT in DIO mice; assay type: in vivo; settings: C57BL/6J DIO mice, 100 mg/kg oral; total GLP-2, 2 hours post glucose dosing
Method: (§2) 18 week old C57BL/6J diet induced obese (DIO) male mice were maintained on a 60 kcal % fat diet. Mice fasted for 9 hours were randomized into groups (n=9-10) to receive vehicle (1% CMC, 2% TWEEN 80) or test compound at a dose of 100 mg/kg. Compounds were delivered orally via gavage, and 30 minutes later mice were dosed orally with 2 g/kg glucose.
(§3) The effect of GPR131 agonists on the secretion of total Glucagon-like peptide-2 (GLP-2) and total Peptide YY (PYY) was determined at the end of the oral glucose tolerance test (2 hours post glucose dosing). Animals were anesthetized with pentobarbital and blood collected by heart puncture in potassium EDTA-coated microtainer tubes containing 10 μl/ml DPP-IV inhibitor and 500 KIU/ml Aprotinin. Total GLP-2 was measured using Total Glucagon-like peptide-2 assay kit and Total PYY was measured using Total Peptide YY assay kit.

[5] = test system: Peptide YY (PYY); experiment: Total PYY secretion at end of OGTT in DIO mice; assay type: in vivo; settings: C57BL/6J DIO mice, 100 mg/kg oral, 2 hours post glucose dosing
Method: as §2, §3

Structure (SMILES)	activation at 1.1 µM [1] [%]	Increase in GLP-1 (Fold) [2] [Fold]	Glucose Reduction (%) [3] [%]	Increase in GLP-2 (Fold) [4] [Fold]	Increase in PYY (Fold) [5] [Fold]
Cc1cnccc1CN(C)C(=O)c1cnc(SCc2c(F)ccc(F)c2F)n1-c1ccc(F)cc1 [Compound 502, 1-(4-Fluorophenyl)-N-methyl-N-((3-methylpyridin-4-yl)methyl)-2-((2,3,6-trifluorobenzyl)thio)-1H-imidazole-5-carboxamide]	100	2.2	27.7		
Cc1nn(C)cc1CN(C)C(=O)c1cnc(SCc2c(F)ccc(F)c2F)n1-c1ccc(F)cc1 [Compound 505, N-((1,3-Dimethyl-1H-pyrazol-4-yl)methyl)-1-(4-fluorophenyl)-N-methyl-2-((2,3,6-trifluorobenzyl)thio)-1H-imidazole-5-carboxamide]	99	1.9	27.4		
Cc1cc(CN(C)C(=O)c2cnc(SCc3c(F)ccc(F)c3F)n2-c2ccc(F)cc2)ccn1 [Compound 577, 1-(4-Fluorophenyl)-N-methyl-N-((2-methylpyridin-4-yl)methyl)-2-((2,3,6-trifluorobenzyl)thio)-1H-imidazole-5-carboxamide]	100	4.1	24.4	2.5	2.2
